Experimental data taken from patent EP0808325B1, “[…] […] SERIES FOR […] GABA RECEPTOR” (priority 1994, dated 1996).

Tests used:
[1] = system: metrazol induced convulsions; assay: animal or person; type: in vivo, mice; conditions: for % Protected: 10 mg/kg
Protocol: Experiments were also performed to determine the physiological relevance of neuroactive steroid and GABA receptor interactions by assessing the ability of the compounds of and used in the invention to prevent metrazol induced convulsions in mice. […] The time to onset of myoclonus (presence of forelimb clonic activity) induced by metrazol was determined by observing each mouse for a period of 30 minutes. […]
The anticonvulsant tests are similar to that described above. […] The number of animals with tonic and/or clonic convulsions was recorded. In the maximal electroshock test, 50 mA of current at 60 Hz was delivered through corneal electrodes for 200 msec to induce tonic seizure. The ability of compounds to abolish the tonic component was defined as the endpoint. General CNS depression potential was determined by a rotorod test 10 minutes after the injection of compounds where the number of mice staying on a rotating (6 rpm) rod for 1 minute in one of the three trials was determined. […]

GR complex = assay: modulation of [35S]TBPS binding in rat cerebral cortex P2 homogenate; design: species or system Sprague-Dawley rats; IMAX: unit not given here; conditions: for IC50: concentration of compounds to inhibit 50% of control [35S]TBPS binding, 2 nM [35S]TBPS, 25°C, 90 minutes, no unit printed; for IMAX: maximum inhibition of [35S]TBPS binding, I* = Inactive
Protocol: We performed several experiments to determine the nature of the modulation of [^35S]TBPS as affected by the compounds of the invention.
These procedures were performed as follows:
Brains from male Sprague-Dawley rats were removed immediately following sacrifice and the cerebral cortices dissected over ice. […] Briefly, the cortices were gently homogenized in 0.32 M sucrose followed by centrifugation at 1000 x g for 10 minutes. The supernatant was collected and centrifuged at 9000 x g for 20 minutes. The resultant P2 pellet was suspended as a 10% (original wet weight/volume) suspension in 50 mM Na/K phosphate buffer (pH 7.4) 200 mM NaCI to form the homogenate.
One hundred microliter […] aliquots of the P2 homogenate (0.5 milligrams (mg) protein) were incubated with 2 nanomolar (nM) [^35S]TBPS (70-110 curies/millimole;, New England Nuclear, Boston, MA) in the presence or absence of the naturally occurring steroids or their synthetic derivatives to be tested. The tested compounds were dissolved in dimethylsulfoxide (Baker Chem. Co., Phillipsbury, NJ) and added to the incubation mixture in 5 µL aliquots. The incubation mixture was brought to a final volume of 1 mL with buffer. Nonspecific binding was defined as binding in the presence of […]. The effect and specificity of GABA (Sigma Chem. Co., St. Louis, MO) was evaluated by performing all assays in the presence of GABA plus (+)bicuculline (Sigma Chem. Co.). Incubations maintained at 25°C for 90 minutes (steady state conditions) were terminated by rapid filtration through glass fiber filters (No. 32, Schleicher and Schuell, Keene, NH). Filter-bound radioactivity was quantitated by liquid scintillation spectrophotometry.
Various compounds were screened to determine their potential as modulators of [^35S]TBPS binding in vitro. These assays were performed in accordance with the above discussed procedures. […] It is an indication of a compound's in vitro potency. Maximum inhibition is an indication of a compound's in vitro efficacy.

[2] = IP, 50% hpbcd, 10 minutes prior to metrazol (85 mg/kg)
[3] = 60 mg/kg, 1 hr, IP, anti-metrazol

In the case of `CC(C)(O)[C@H]1CC[C@H]2[C@@H]3CC[C@@H]4C[C@](C)(O)CC[C@]4(C)[C@H]3CC[C@]12C` [3α,20-Dihydroxy-3β,20-dimethyl-5β-pregnane], the “% Protected” value ([1]; IP, micro soln.) is reported as 22.2%.
`C#CC1(O)CCC2(C)C(CCC3C2CCC2(C)C(C(C)O)CCC32)C1` (stereo not drawn) [3α,20α-dihydroxy-3β-ethynyl-5α-pregnane, 3β-Ethynyl-3α,20α-dihydroxy-5α-pregnane] was tested, and the IC50 (GR complex) was 202 nM and the IMAX (GR complex) was 56.
`C#CC1(O)CCC2(C)C(CCC3C2CCC2(C)C(C(C)O)CCC32)C1` (stereo not drawn) [3α,20α-dihydroxy-3β-ethynyl-5β-pregnane, 3β-Ethynyl-3α,20α-dihydroxy-5β-pregnane] was tested, and the IC50 (GR complex) was 557 nM and the IMAX (GR complex) was 98.
For `C#C[C@@]1(O)CC[C@@]2(C)[C@@H](CC[C@@H]3[C@@H]2CC[C@]2(C)[C@@H]([C@@H](C)O)CC[C@@H]32)C1` [3α,20β-dihydroxy-3β-ethynyl-5α-pregnane, 3β-ethynyl-3α,20β-dihydroxy- 5α-pregnane], the IC50 (GR complex) was 774 nM, the IMAX (GR complex) was 107 and the “% Protected” value [1, 2] was 37.5%.
With `C#C[C@@]1(O)CC[C@@]2(C)[C@H](CC[C@@H]3[C@@H]2CC[C@]2(C)[C@@H]([C@@H](C)O)CC[C@@H]32)C1` [3α,20β-dihydroxy-3β-ethynyl-5β-pregnane, 3β-Ethynyl-3α,20β-dihydroxy-5β-pregnane] the IC50 (GR complex) was 688 nM, the IMAX (GR complex) was 77 and the “% Protected” value [1, 2] was 25%.
With `CC(O)C1CCC2C3CCC4CC(C)(O)CCC4(C)C3CCC12C` (stereo not drawn) [3α,20β-dihydroxy-3β-methyl-5α-pregnane] the IC50 (GR complex) was 924 nM and the IMAX (GR complex) was 99.
In the case of `CC(O)C1CCC2C3CCC4CC(C)(O)CCC4(C)C3CCC12C` (stereo not drawn) [3α,20β-dihydroxy-3β-methyl-5β-pregnane], the IC50 (GR complex) is reported as 455 nM and the IMAX (GR complex) is reported as 105.
`C[C@]12CC[C@](O)(C(F)(F)F)C[C@H]1CC[C@@H]1[C@@H]2CC[C@]2(C)[C@@H](C(=O)COC(=O)CCC(=O)O)CC[C@@H]12` [3α,21-Dihydroxy-3β-trifluoromethyl-5β-pregnan-20-one, 21-hemisuccinate] was tested, and the IC50 (GR complex) was 648 nM, the IMAX (GR complex) was 101 and the “% Protected” value ([1]; IP, water) was 50%.
`C=C[C@@]1(O)CC[C@@]2(C)[C@@H](CC[C@@H]3[C@@H]2CC[C@]2(C)[C@@H](C(=O)COC(=O)CCC(=O)O)CC[C@@H]32)C1` [3α,21-dihydroxy-3β-ethenyl-5α-pregnan-20-one 21-hemisuccinate] showed an IC50 (GR complex) of 377 nM and an IMAX (GR complex) of 89.
Compound `C=C[C@@]1(O)CC[C@@]2(C)[C@@H](CC[C@@H]3[C@@H]2CC[C@]2(C)[C@@H](C(=O)CO)CC[C@@H]32)C1` [3α,21-dihydroxy-3β-ethenyl-5α-pregnan-20-one] has an IC50 (GR complex) of 288 nM and an IMAX (GR complex) of 101.
`COC(=O)CCC(=O)OCC(=O)C1CCC2C3CCC4CC(O)(C(F)(F)F)CCC4(C)C3CCC12C` (stereo not drawn) [3α,21-dihydroxy-3β-trifluoromethyl-5β-pregnan-20-one methyl 21-succinate] was tested, and the IC50 (GR complex) was 480 nM and the IMAX (GR complex) was 86.
Work on `C[C@]12CC[C@@H](O)C[C@@H]1CC[C@@H]1[C@@H]2CC[C@]2(C)[C@@H](C(=O)COC(=O)CCC(=O)O)CC[C@@H]12` [3α,21-dihydroxy-5α-pregnan-20-one 21-hemisuccinate] yielded an IC50 (GR complex) of 117 nM and an IMAX (GR complex) of 91.
Work on `CCC(=O)[C@H]1CC[C@H]2[C@@H]3CC[C@H]4C[C@](C)(O)CC[C@]4(C)[C@H]3CC[C@]12C` [3α-hydroxy-3β,21-dimethyl-5α-pregnan-20-one] yielded an IC50 (GR complex) of 89 nM and an IMAX (GR complex) of 85.
Work on `CC(=O)[C@H]1CC[C@H]2[C@@H]3CC[C@H]4C[C@](C)(O)CC[C@]4(C)[C@H]3C=C[C@]12C` [3α-hydroxy-3β-methyl-5α-pregn-11-en-20-one] yielded an IC50 (GR complex) of 242 nM and an IMAX (GR complex) of 76.
Work on `CC(=O)[C@H]1CC[C@H]2[C@@H]3CC[C@H]4C[C@](C)(O)CC[C@]4(C)[C@H]3C(=O)C[C@]12C` [3α-hydroxy-3β-methyl-5α-pregnane-11,20-dione] yielded an IC50 (GR complex) of 958 nM and an IMAX (GR complex) of 100.
`CC(=O)[C@H]1CC[C@H]2[C@@H]3CC[C@@H]4C[C@](C)(O)CC[C@@H]4[C@H]3CC[C@]12C` [3α-hydroxy-3β-methyl-5β-19-nor-pregnan-20-one] gave an IC50 (GR complex) of 26 nM and an IMAX (GR complex) of 94.
Compound `CC(=O)C1=CC[C@H]2[C@@H]3CC[C@@H]4C[C@](C)(O)CC[C@]4(C)[C@H]3CC[C@]12C` [3α-hydroxy-3β-methyl-5β-pregn-16-en-20-one] has an IC50 (GR complex) of 955 nM and an IMAX (GR complex) of 100.
`CCC(=O)[C@H]1CC[C@H]2[C@@H]3CC[C@@H]4C[C@H](O)CC[C@]4(C)[C@H]3CC[C@]12C` [3α-hydroxy-21-methyl-5β-pregnan-20-one] was tested, and the IC50 (GR complex) was 78 nM and the IMAX (GR complex) was 100.
For `CCCCC#C[C@@]1(O)CC[C@@]2(C)[C@H](CC[C@@H]3[C@@H]2CC[C@]2(C)[C@@H](C(C)=O)CC[C@@H]32)C1` [3β-(1-hexynyl)-3α-hydroxy-5β-pregnan-20-one], the “% Protected” value [1, 2] was 37.5%.
For `CC(=O)C1CCC2C3CCC4CC(O)(C#CCCCCl)CCC4(C)C3CCC12C` (stereo not drawn) [3β-(5'-chloropentyn-1'-yl)-3α-hydroxy-5β-pregnan-20-one], the IC50 (GR complex) was 44 nM and the IMAX (GR complex) was 98.
With `CC(=O)C1CCC2C3CCC4CC(OC(=O)c5ccc(Cl)cc5)CCC4(C)C3CCC12C` (stereo not shown) [4-Chlorophenyl] the “% Protection” value [1, 3] was 50%.
For `COc1ccc(C(=O)OC2CCC3(C)C(CCC4C3CCC3(C)C(C(C)=O)CCC43)C2)cc1` (stereo not shown) [4-Methoxyphenyl], the “% Protection” value [1, 3] was 17%.
`CC12CCC(O)(C(F)(F)F)CC1CCC1C2CCC2(C)C(C(=O)CBr)CCC12` (stereo not drawn) [21-bromo-3α-hydroxy-3β-trifluoromethyl-5β-pregnan-20-one] showed an IC50 (GR complex) of 1530 nM and an IMAX (GR complex) of 102.
For `CCCCC(=O)OC1CCC2(C)C(CCC3C2CCC2(C)C(C(C)=O)CCC32)C1` (stereo not shown) [Butyl], the “% Protection” value ([1]; mouse, in vivo) was 33%.
`CCC(=O)OC1CCC2(C)C(CCC3C2CCC2(C)C(C(C)=O)CCC32)C1` (stereo not shown) [Ethyl] was tested, and the “% Protection” value [1, 3] was 75%.
`CC(=O)C1CCC2C3CCC4CC(OC(=O)C(C)C)CCC4(C)C3CCC12C` (stereo not shown) [Example 2-Propyl] was tested, and the “% Protection” value [1, 3] was 75%.
For `CC(=O)C1CCC2C3CCC4CC(OC(=O)c5cccnc5)CCC4(C)C3CCC12C` (stereo not shown) [Example 3-Pyridyl], the “% Protection” value ([1]; 60 mg/kg, IP, 20 hour, anti-metrazol) was 50 (20 hour) %.
In the case of `CCCC(CCC)C(=O)OC1CCC2(C)C(CCC3C2CCC2(C)C(C(C)=O)CCC32)C1` (stereo not shown) [Example 4-Heptyl], the “% Protection” value ([1]; 60 mg/kg, IP, 4 hour, anti-metrazol) is reported as 16 (4 hour) %.
With `CC(=O)OC1CCC2(C)C(CCC3C2CCC2(C)C(C(C)=O)CCC32)C1` (stereo not shown) [Methyl] the “% Protection” value [1, 3] was 25%.
With `CC(=NCCO)[C@H]1CC[C@H]2[C@@H]3CC[C@H]4C[C@](C)(O)CC[C@]4(C)[C@H]3CC[C@]12C` [N-(3α-hydroxy-3β-methyl-5α-pregnan-20-ylidine)ethanolamine] the IC50 (GR complex) was 101 nM and the IMAX (GR complex) was 93.
For `CC(=O)C1CCC2C3CCC4CC(OC(=O)c5ccccc5)CCC4(C)C3CCC12C` (stereo not shown) [Phenyl], the “% Protection” value [1, 3] was 33%.
With `CCCC(=O)O[C@@H]1CC[C@@]2(C)[C@@H](CC[C@@H]3[C@@H]2CC[C@]2(C)[C@@H](C(C)=O)CC[C@@H]32)C1` [Propyl] the “% Protection” value [1, 3] was 75%.
For `CC(C)CCC[C@@H](C)[C@H]1CC[C@H]2[C@@H]3CC=C4C[C@@H](O)CC[C@]4(C)[C@H]3CC[C@]12C` [cholesterol, reference compound], the IC50 (GR complex) was > 1000 nM and the IMAX (GR complex) was “I*”.
`C[C@]12C[C@H](O)[C@H]3[C@@H](CCC4=CC(=O)CC[C@@]43C)[C@@H]1CC[C@@H]2C(=O)CO` [corticosterone, reference compound] was tested, and the IC50 (GR complex) was > 1000 nM and the IMAX (GR complex) was “I*”.
In the case of `CC(=O)[C@H]1CC[C@H]2[C@@H]3CCC4=CC(=O)CC[C@]4(C)[C@H]3CC[C@]12C` [progesterone, reference compound], the IC50 (GR complex) is reported as > 1000 nM and the IMAX (GR complex) is reported as “I*”.
